Nine compounds from patent publication US20140296216A1, “PYRIMIDO[4,5-D]PYRIMIDINYL COMPOUNDS, PHARMACEUTICAL COMPOSITIONS AND USES THEREOF” (GUANGZHOU INSTITUTE OF BIOMEDICINE AND HEALTH, CHINESE …, priority 2011, published 2014) can be followed below.

The target of one experiment is EGFRWT (Homo sapiens, UniProt P00533). In words: In vitro enzymatic activity assay (Z'-LYTE), wild type EGFR. The experiment is classed as biochemical. The conditions noted are these: Z'-LYTE FRET peptide assay; read-out: EGFRWT kinase activity (IC50). The procedure, abridged: (§1)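 Z'-LYTE FRET coupled-enzyme format: kinase phosphorylates FRET peptide substrate, then after one hour a site-specific protease cleaves non-phosphorylated peptide. After another hour, excitation at 400 nm and emission read at 445 and 520 nm.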
EGFRWT, sequence (P00533 25-1210): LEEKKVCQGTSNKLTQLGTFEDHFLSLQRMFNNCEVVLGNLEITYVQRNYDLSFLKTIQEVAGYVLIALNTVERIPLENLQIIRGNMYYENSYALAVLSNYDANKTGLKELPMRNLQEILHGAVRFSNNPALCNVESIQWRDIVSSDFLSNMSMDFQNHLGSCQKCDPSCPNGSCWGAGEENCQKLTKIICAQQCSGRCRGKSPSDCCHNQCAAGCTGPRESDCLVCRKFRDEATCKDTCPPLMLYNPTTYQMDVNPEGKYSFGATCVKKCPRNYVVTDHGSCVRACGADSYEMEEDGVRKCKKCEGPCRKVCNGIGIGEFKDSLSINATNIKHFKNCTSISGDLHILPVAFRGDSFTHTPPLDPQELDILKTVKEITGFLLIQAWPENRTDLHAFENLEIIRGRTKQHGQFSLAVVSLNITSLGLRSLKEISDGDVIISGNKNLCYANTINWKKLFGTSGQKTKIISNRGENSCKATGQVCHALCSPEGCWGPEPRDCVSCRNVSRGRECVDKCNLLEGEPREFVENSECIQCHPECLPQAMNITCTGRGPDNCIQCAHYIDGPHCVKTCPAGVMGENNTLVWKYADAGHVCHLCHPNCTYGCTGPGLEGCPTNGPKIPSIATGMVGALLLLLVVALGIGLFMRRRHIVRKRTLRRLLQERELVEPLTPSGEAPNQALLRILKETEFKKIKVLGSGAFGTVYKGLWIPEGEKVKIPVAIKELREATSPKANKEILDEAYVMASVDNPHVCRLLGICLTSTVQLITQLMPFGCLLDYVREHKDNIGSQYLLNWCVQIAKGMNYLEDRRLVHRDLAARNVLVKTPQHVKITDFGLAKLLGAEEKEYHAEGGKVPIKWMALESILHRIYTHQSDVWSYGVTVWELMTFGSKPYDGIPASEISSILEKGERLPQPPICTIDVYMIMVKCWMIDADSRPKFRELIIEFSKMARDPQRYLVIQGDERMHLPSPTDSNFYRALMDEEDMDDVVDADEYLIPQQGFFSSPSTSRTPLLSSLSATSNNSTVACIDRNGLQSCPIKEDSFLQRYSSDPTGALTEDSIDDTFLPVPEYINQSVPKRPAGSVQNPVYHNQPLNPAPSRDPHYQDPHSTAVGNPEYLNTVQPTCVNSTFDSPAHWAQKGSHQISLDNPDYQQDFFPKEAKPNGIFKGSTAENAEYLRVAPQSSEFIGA

The target in another experiment is T1, EGFR T790M kinase (Homo sapiens, UniProt P00533, T790M).
T1 construct: purchased invitrogen PV4803
T1 sequence (P00533 25-1210 T790M): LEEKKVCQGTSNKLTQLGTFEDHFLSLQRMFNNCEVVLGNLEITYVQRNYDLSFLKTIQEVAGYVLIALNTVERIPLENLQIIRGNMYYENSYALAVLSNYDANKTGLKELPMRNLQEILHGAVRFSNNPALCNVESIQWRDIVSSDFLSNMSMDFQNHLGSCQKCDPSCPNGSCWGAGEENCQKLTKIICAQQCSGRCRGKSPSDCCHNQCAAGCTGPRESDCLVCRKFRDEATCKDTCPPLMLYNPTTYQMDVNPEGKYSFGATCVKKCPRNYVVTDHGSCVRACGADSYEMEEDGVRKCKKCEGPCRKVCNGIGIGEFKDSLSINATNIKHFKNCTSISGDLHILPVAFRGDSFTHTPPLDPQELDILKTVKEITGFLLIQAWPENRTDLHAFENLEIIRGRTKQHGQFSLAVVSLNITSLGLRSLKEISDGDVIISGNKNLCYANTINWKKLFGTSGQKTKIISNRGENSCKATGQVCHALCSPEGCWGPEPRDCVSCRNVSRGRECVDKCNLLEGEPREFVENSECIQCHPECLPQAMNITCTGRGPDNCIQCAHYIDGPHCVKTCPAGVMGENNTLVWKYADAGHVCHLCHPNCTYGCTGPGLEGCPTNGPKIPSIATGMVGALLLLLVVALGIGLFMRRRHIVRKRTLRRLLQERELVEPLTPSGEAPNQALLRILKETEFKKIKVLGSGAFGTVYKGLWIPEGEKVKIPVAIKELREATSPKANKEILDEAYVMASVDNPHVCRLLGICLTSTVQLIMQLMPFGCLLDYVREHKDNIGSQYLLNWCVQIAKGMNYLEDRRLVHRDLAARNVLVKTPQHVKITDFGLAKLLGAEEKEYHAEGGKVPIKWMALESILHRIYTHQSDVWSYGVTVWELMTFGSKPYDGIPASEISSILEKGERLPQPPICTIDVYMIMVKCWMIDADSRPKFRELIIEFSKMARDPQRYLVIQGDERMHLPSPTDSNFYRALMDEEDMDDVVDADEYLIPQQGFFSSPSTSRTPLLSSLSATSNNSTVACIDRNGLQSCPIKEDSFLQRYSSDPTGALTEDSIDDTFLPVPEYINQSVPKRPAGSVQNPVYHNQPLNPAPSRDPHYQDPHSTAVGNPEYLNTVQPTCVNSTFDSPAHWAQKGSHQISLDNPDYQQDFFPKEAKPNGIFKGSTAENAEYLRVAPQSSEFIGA
Briefly: In vitro enzymatic activity assay (Z'-LYTE), EGFR T790M. The class given is biochemical. The conditions noted are these: Z'-LYTE FRET peptide assay; read-out: EGFRT790M kinase activity (IC50). The procedure, abridged: as §1

Another experiment deals with EGFRL858R (Homo sapiens, UniProt P00533, L858R). Briefly: In vitro enzymatic activity assay (Z'-LYTE), EGFR L858R. The class given is biochemical. The note with it: Z'-LYTE FRET peptide assay; read-out: EGFRL858R kinase activity (IC50). The procedure, abridged:
as §1

A further experiment has as its target EGFRL861Q (Homo sapiens, UniProt P00533, L861Q). In words: In vitro enzymatic activity assay (Z'-LYTE), EGFR L861Q. The class given is biochemical. The note with it: Z'-LYTE FRET peptide assay; read-out: EGFRL861Q kinase activity (IC50). The procedure, abridged: as §1
For a further experiment, the target named is EGFRL858R + T790M (Homo sapiens, UniProt P00533, L858R/T790M). In words: In vitro enzymatic activity assay (Z'-LYTE), EGFR L858R + T790M. The class given is biochemical. The note with it: Z'-LYTE FRET peptide assay; read-out: EGFRL858R + T790M kinase activity (IC50). In outline:
as §1

The subject of experiment [1] is H1975 (lung cancer cells, EGFR L858R&T790M). Briefly: Cell proliferation by MTT, H1975. The class given is cell-based. The conditions noted are these: Homo sapiens, NCI-H1975, read-out: H1975 50% inhibitory concentration (IC50), 72 h.
Experiment [2] relates to HCC827 (lung cancer cells, EGFR E746-A750 deletion). In words: Cell proliferation by MTT, HCC827. The experiment is classed as cell-based. The note with it: Homo sapiens, HCC827, read-out: HCC827 50% inhibitory concentration (IC50), 72 h.
The subject of experiment [3] is A431 (Human epidermal carcinoma, EGFR high expression). Briefly: Cell proliferation by MTT, A431. The experiment is classed as cell-based. The conditions noted are these: A-431, read-out: A431 50% inhibitory concentration (IC50), 72 h.
Another experiment has as its system EGFR kinase. In words: In vitro kinase assays of FIGS. 1-22 (WT EGFR and EGFR T790M), inhibition at fixed concentration. The experiment is classed as biochemical. The conditions noted are these: 1 μM; FIGS. 1-22 (WT EGFR, EGFR T790M). As for the experimental part: In vitro enzymatic activity assay: using Z′-LYTE™ technology (detect fluorescence, coupled-enzyme format, based on the differential sensitivity of phosphorylated and non-phosphorylated peptides to proteolytic cleavage), based on FRET, using Z′ LYTE™ FRET peptide substrate, detect the activity of compounds against enzymatic. (invitrogen, Z′-LYTE™ KINASE ASSAY KIT-TYR 2 PEPTIDE, PV3191) EGFR T790M kinase (invitrogen, PV4803) was diluted progressively, then FRET-peptide, ATP and different concentrations of compound are added to the solution. After one hour, site specific protease which can recognize and cleaves non-phosphorylated FRET-peptide. After another hour, using an excitation wavelength of 400 nm excites, then detect the […] at 445 nm and 520 nm.
In the enzymatic activity assay of 7-(substituted amino)-3,4-dihydropyrimido[4,5-d]pyrimidin-(1H)-ones against the EGFR kinase, due to the presence of the irreversible Michael addition reaction with the protein cysteine sites, some compounds show a relatively good inhibitive activity to both the two kinases. […] The R1 of 7-(substituted amino)-3,4-dihydropyrimido[4,5-d]pyrimidin-(1H)-ones plays a key role in the interaction between compounds and protein, especially when R1 is aryl, it can get the best activity. […]

For experiment [4], the system named is NCI-H820 (lung cancer cells). In words: Cell proliferation by MTT, NCI-H820. The experiment is classed as cell-based. The note with it: NCI-H820, read-out: NCI-H820 50% inhibitory concentration (IC50), 72 h.

EGFRL858R + T790M, sequence (P00533 25-1210 T790M/L858R): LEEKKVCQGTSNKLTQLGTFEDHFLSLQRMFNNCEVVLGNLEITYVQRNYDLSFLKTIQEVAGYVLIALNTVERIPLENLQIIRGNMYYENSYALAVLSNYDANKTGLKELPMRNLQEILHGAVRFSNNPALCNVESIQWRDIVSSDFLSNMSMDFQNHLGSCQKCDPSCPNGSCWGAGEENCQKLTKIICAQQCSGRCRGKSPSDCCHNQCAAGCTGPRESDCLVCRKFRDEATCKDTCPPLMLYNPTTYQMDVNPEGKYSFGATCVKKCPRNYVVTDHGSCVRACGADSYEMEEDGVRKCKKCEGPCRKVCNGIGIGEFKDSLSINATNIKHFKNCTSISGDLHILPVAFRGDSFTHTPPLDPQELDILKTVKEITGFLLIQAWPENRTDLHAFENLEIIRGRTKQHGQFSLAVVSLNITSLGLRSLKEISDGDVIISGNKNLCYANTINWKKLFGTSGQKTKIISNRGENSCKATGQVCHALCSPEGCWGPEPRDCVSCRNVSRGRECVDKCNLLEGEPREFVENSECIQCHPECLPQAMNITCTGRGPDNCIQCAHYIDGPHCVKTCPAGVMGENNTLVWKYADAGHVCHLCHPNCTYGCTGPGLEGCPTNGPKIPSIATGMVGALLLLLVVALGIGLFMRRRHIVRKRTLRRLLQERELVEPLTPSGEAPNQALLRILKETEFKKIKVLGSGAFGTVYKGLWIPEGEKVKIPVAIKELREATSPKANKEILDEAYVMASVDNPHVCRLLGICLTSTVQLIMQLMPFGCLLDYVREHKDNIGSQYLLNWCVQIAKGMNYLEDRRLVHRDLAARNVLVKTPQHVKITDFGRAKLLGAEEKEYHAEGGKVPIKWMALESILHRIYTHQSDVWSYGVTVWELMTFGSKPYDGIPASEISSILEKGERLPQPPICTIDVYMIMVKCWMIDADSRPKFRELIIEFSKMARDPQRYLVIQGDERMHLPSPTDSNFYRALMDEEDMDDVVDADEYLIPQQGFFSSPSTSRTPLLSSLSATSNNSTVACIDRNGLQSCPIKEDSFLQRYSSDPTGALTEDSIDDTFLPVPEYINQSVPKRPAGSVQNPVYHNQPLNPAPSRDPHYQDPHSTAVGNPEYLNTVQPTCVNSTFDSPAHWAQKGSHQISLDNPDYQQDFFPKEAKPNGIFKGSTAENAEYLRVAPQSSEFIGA
EGFRL858R, sequence (P00533 25-1210 L858R): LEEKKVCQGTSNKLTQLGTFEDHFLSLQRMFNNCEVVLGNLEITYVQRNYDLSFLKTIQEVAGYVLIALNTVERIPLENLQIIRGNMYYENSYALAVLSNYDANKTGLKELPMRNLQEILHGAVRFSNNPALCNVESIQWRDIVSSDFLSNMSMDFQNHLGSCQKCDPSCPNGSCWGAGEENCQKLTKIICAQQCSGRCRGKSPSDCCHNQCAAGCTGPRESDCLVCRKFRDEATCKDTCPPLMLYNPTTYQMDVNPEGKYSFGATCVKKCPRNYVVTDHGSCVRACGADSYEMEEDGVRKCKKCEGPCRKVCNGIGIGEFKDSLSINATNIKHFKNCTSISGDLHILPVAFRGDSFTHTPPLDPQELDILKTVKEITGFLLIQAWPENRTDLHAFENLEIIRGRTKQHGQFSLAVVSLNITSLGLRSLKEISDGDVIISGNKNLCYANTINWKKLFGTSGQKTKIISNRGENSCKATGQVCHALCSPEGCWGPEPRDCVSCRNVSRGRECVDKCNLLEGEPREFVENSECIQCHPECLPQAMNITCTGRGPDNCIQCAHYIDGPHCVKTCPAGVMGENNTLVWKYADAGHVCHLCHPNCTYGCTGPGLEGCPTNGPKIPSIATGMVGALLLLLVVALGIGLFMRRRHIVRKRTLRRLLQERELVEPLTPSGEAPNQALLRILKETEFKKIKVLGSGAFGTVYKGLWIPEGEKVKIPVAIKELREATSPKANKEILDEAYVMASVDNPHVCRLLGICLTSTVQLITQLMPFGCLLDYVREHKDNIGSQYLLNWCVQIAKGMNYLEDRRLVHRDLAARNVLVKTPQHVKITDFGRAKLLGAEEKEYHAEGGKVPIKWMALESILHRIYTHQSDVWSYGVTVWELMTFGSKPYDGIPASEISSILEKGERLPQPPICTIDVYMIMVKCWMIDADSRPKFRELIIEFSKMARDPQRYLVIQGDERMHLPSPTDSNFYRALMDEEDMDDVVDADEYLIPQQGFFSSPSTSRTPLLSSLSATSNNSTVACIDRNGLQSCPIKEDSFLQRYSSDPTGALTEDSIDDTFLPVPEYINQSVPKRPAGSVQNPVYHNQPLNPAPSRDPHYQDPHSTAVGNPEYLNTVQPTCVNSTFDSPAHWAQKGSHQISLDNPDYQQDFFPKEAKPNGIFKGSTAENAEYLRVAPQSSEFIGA

In the case of `COc1cc(N2CCN(C)CC2)ccc1Nc1ncc2c(n1)N(c1cccc(N)c1)C(=O)N(C)C2` [C-EGF33, 1-(3-aminophenyl)-7-(2-methoxy-4-(4-methylpiperazin-1-yl)phenylamino)-3-methyl-3,4-dihydropyrimido[4,5-d]pyrimidin-2(1H)-one], the IC50 at EGFRWT was 100 to 1000 nM; at EGFR T790M kinase, 1000 to 10000 nM; at EGFRL858R, 100 to 1000 nM; at EGFRL861Q, 1000 to 10000 nM; on EGFRL858R + T790M it was 1000 to 10000 nM; in experiment [1], above 20000 nM. Further, the IC50 in experiment [2] was 4890 nM; in experiment [3] it was above 30000 nM. Besides, in the experiment with EGFR kinase, the “inhibitive activity for inhibiting a kinase at a relatively high test concentration” value is listed as “poor”.
Turning to `C=CC(=O)Nc1cccc(N2C(=O)N(C)Cc3cnc(Nc4ccc(N5CCC(N(C)C)CC5)cc4)nc32)c1` [Compound X004, N-(3-(7-(4-(4-(dimethylamino)piperidin-1-yl)phenylamino)-3-methyl-2-oxo-3,4-dihydropyrimido[4,5-d]pyrimidin-1(2H)-yl)phenyl)acrylamide], the IC50 was at most 10 nM at EGFRWT; at most 10 nM on EGFR T790M kinase; at most 10 nM at EGFRL858R; at most 10 nM at EGFRL861Q; at most 10 nM at EGFRL858R + T790M; 261 nM in experiment [1]. The IC50 in experiment [2] is 181 nM; in experiment [3], above 100000 nM; in [4] it was above 100000 nM.
Take `C=CC(=O)Nc1cccc(N2C(=O)N(C)Cc3cnc(Nc4ccc(N5CCSCC5)cc4)nc32)c1` [Compound X005, N-(3-(3-methyl-2-oxo-7-(4-thiomorpholinophenylamino)-3,4-dihydropyrimido[4,5-d]pyrimidin-1(2H)-yl)phenyl)acrylamide]: the IC50 at EGFRWT is at most 10 nM; at EGFR T790M kinase, at most 10 nM; at EGFRL858R, at most 10 nM; on EGFRL861Q, at most 10 nM; at EGFRL858R + T790M, at most 10 nM; in [1], 333 nM. Moreover, the IC50 in [2] was 23 nM; in [3], 16200 nM; in experiment [4] it was above 100000 nM.
As for `C=CC(=O)Nc1cccc(N2C(=O)N(C)Cc3cnc(Nc4ccc(N5CCN(C)CC5)cc4OC(C)C)nc32)c1` [Compound X006, N-(3-(7-(2-isopropoxy-4-(4-methylpiperazin-1-yl)phenylamino)-3-methyl-2-oxo-3,4-dihydropyrimido[4,5-d]pyrimidin-1(2H)-yl)phenyl)acrylamide], the IC50 is at most 10 nM on EGFRWT; 10 to 100 nM on EGFR T790M kinase; 10 to 100 nM on EGFRL858R; 10 to 100 nM at EGFRL861Q; 10 to 100 nM on EGFRL858R + T790M; 543 nM in experiment [1]. The IC50 in experiment [2] was 108 nM; in experiment [3], 62500 nM; in experiment [4], above 100000 nM.
On to `C=CC(=O)Nc1cccc(N2C(=O)N(C)Cc3cnc(Nc4ccc(N5CCOCC5)cc4)nc32)c1` [Compound X007, N-(3-(3-methyl-7-(4-morpholinophenylamino)-2-oxo-3,4-dihydropyrimido[4,5-d]pyrimidin-1(2H)-yl)phenyl)acrylamide], for which the IC50 on EGFRWT was at most 10 nM; on EGFR T790M kinase it was at most 10 nM; at EGFRL858R, at most 10 nM; on EGFRL861Q it was at most 10 nM; at EGFRL858R + T790M it was at most 10 nM; in experiment [1], 696 nM. Also, the IC50 in [2] was 256 nM; in [3], 3480 nM; in experiment [4] it was above 100000 nM.
As to `C=CC(=O)Nc1cccc(N2C(=O)N(C)Cc3cnc(Nc4ccc(OCCN5CCOCC5)cc4OC)nc32)c1` [Compound X008, N-(3-(7-(2-methoxy-4-(2-morpholinoethoxy)phenylamino)-3-methyl-2-oxo-3,4-dihydropyrimido[4,5-d]pyrimidin-1(2H)-yl)phenyl)acrylamide], the IC50 was at most 10 nM at EGFRWT; 10 to 100 nM at EGFR T790M kinase; at most 10 nM on EGFRL858R; at most 10 nM on EGFRL861Q; at most 10 nM on EGFRL858R + T790M; 1100 nM in experiment [1]. Further, the IC50 in experiment [2] is 179 nM; in [3], 29900 nM; in [4], above 100000 nM.
For the compound `C=CC(=O)Nc1cccc(N2C(=O)N(C)Cc3cnc(Nc4ccc(N5CCN(C)CC5)cc4OCC)nc32)c1` [Compound X009, N-(3-(7-(2-ethoxy-4-(4-methylpiperazin-1-yl)phenylamino)-3-methyl-2-oxo-3,4-dihydropyrimido[4,5-d]pyrimidin-1(2H)-yl)phenyl)acrylamide], the IC50 on EGFRWT is at most 10 nM; at EGFR T790M kinase, 10 to 100 nM; on EGFRL858R, at most 10 nM; on EGFRL861Q it was at most 10 nM; at EGFRL858R + T790M it was at most 10 nM; in experiment [1], 710 nM. Also, the IC50 in experiment [2] is 3 nM; in experiment [3], above 5000 nM; in experiment [4] it was above 100000 nM.
For the compound `C=CC(=O)Nc1cccc(N2C(=O)N(C)Cc3cnc(Nc4ccc(N5CCN(C)CC5)cc4C)nc32)c1` [Compound X010, N-(3-(3-methyl-7-(2-methyl-4-(4-methylpiperazin-1-yl)phenylamino)-2-oxo-3,4-dihydropyrimido[4,5-d]pyrimidin-1(2H)-yl)phenyl)acrylamide], the IC50 on EGFRWT was at most 10 nM; at EGFR T790M kinase it was at most 10 nM; on EGFRL858R, at most 10 nM; on EGFRL861Q, at most 10 nM; at EGFRL858R + T790M, at most 10 nM; in experiment [1], 173 nM. Further, the IC50 in experiment [2] was 53 nM; in experiment [3] it was 1450 nM; in experiment [4] it was 41500 nM.
With `C=CC(=O)Nc1cccc(N2C(=O)N(C)Cc3cnc(Nc4ccc(N5CCN(C)CC5)cc4)nc32)c1` [x001, N-(3-(3-methyl-7-(4-(4-methylpiperazin-1-yl)phenylamino)-2-oxo-3,4-dihydropyrimido[4,5-d]pyrimidin-1(2H)-yl)phenyl)acrylamide], the IC50 is at most 10 nM on EGFRWT; at most 10 nM at EGFR T790M kinase; at most 10 nM at EGFRL858R; at most 10 nM at EGFRL861Q; at most 10 nM on EGFRL858R + T790M; 115 nM in experiment [1]. In addition, the figures for the IC50 in experiment [2], in [3] and in experiment [4] were 29 nM, 3970 nM and above 100000 nM, respectively.
